According to patent US20260256870A1, “SKIN COMPOSITION” (Eaderm Co., Ltd., priority 2019, published 2026):
Entries after “also recorded” stand apart in the source; their conditions may differ.

Assays:
[1] = system: full thickness wounds in the skin of rodent tails; experiment: Full thickness wound healing in tail skin; assay type: in vivo, mice; conditions: day 0, day 14, day 21 (FIG. 12)
Protocol: To test the above hypothesis, the present inventors performed a full-layer wound healing experiment using the tail skin of aged wild-type mice. […] Forced expression of hCOL17A1 by basal layer keratinocytes in mice also promoted wound healing (FIG. 12). […] To confirm the beneficial effects in vivo, these drugs were administered to full thickness wounds in the skin of rodent tails.

[2] = system: skin damage induced by erlotinib; experiment: Improvement of skin damage caused by erlotinib administration, TEWL (Example 10); assay type: in vivo, C57BL6N mice; conditions: 200 μM applied on the back once a day, five times a week; 7 weeks old or 6 months old mice; day 7 / day 12 (FIG. 19)
Protocol: Female […] mice (7 weeks old or 6 months old) were acclimatized to the experimental environment, and then hair was removed from their back under anesthesia. […] The control non-administered group received the 0.5% methylcellulose solution of the solvent in the same way. The control group applied with the solvent and the group applied with 200 μM apocynin received an aqueous solution of each preparation once a day, five times a week on the back. To the control solvent application group the solvent (50% ethanol/PBS) of apocynin was similarly applied.

[3] = system: SDS-induced skin roughness, medial forearm; experiment: Human skin roughness induced by 10% SDS (Example 18); assay type: in vivo
Protocol: Two subjects were administered with substances that promote the self-renewal ability of epidermal stem cells (apocynin, ebselen, and celecoxib) using a test of skin roughness induced by 10% sodium lauryl sulfate (SDS) solution (a test that serves as a standard for chemical-induced skin damage in humans), and the effect of the skin roughness-preventing or -ameliorating agent in improving skin roughness was evaluated. Six 1.5-cm square areas were placed on the subject's medial forearm, and each was subjected to the treatments below. • SDS non-treated (70% ethanol treatment) group • SDS treatment+solvent (50% ethanol/PBS) application group. • SDS treatment+apocynin (200 μM) solution application group • SDS treatment+ebselen (0.25%) solution application group. • SDS treatment+celecoxib (2%) solution application group A cotton ball permeated with 500 μL of 10% SDS solution (dissolved in 70% ethanol) was applied to the test area for 30 minutes each on day 0 and day 1. Apocynin was applied on day 0 before SDS treatment, applied after treatment, and then applied to the test area once daily until day 9. The TEWL at each test area was measured before and after SDS treatment, and daily from day 1 to day 7. For each area, the TEWL value before SDS treatment was subtracted from the TEWL value on the measurement day, and this value was defined as “ΔTEWL”, and this value was used for evaluation. The test area was photographed with a digital camera and with PRIMOS-CR (Canfield Scientific, Inc., USA, Integral Corporation), a high-resolution three-dimensional image analyzer. For the PRIMOS images, the Primos OMC3_22 software was used to measure the degree of skin roughness in terms of “Ry (maximum height)” and “Rz (ten-point average roughness)”, which are parameters representing surface roughness in the height direction. For each site, the value obtained by subtracting the Rz or Ry value of the SDS non-treated control from the Rz or Ry value on the measurement day was defined as “ΔRz” and “ΔRy”, and these values were used for evaluation.

[4] = system: SDS-induced skin roughness; experiment: Skin roughness induced by 10% SDS in hairless mice (Examples 16, 17); assay type: in vivo, hairless mice (HOS: HR-1)
From the text: Using a skin irritation model induced by a 10% sodium lauryl sulfate (SDS) solution (a test that serves as a standard for chemical-induced skin damage), the present inventors administered a substance that promotes the competitive self-renewal ability of epidermal stem cells (apocynin) and evaluated the effect of the skin roughness-preventing or -ameliorating agent in improving skin roughness. After acclimation of hairless mice (HOS: HR-1) to the experimental environment, the mice were divided into the three groups below, so that the body weight values were nearly uniform. • SDS non-treated group (n=2) • SDS treatment+solvent application group (n=4) • SDS treatment+200 μM apocynin application group (n=4) On the back of hairless mice, a cotton ball soaked in 500 μL of 10% SDS solution (dissolved in 70% ethanol) was applied for 30 min on days 1, 2, 3, and 4. Apocynin was applied to the back every day from the day before the experiment until day 4. For each group of mice on the third day after the start of the experiment, TEWL was measured at specific sites on the back (two sites on the left side and right side symmetrically from the center of the spine) as described above. On the eighth day, the images were taken by PRIMOS-CR (Canfield Scientific, Inc., Integral Corporation), a high-resolution 3D image analysis system. […] Using a skin irritation model induced by 10% sodium lauryl sulfate (SDS) solution, the present inventors administered a substance that promotes the competitive self-renewal ability of epidermal stem cells (ebselen) and evaluated the effect of the skin roughness-preventing or -ameliorating agent in improving skin roughness. […] For each group of mice on the eighth day after the start of the experiment, TEWL was measured at specific sites on the back (two sites on the left side and right side symmetrically from the center of the spine) as described above. […]

[5] = system: upper cervical-dorsal skin of aged mice; experiment: Irritant skin disorder (dry eczema and alopecia) model induced by 100% ethanol in aged mice; assay type: in vivo; conditions: continuously applied, aged mice (FIG. 20)
From the text: In the irritant skin disorder (dry eczema and alopecia) model induced by a high concentration of ethanol (100%) in the upper cervical-dorsal skin of aged mice, a substance (apocynin) that promotes the cell competitive ability of epidermal stem cells was continuously applied.

[6] = apocynin 200 μM, ebselen 0.25%, celecoxib 2%
[7] = eighth day, surface of the back, compared to the solvent-applied control group

SMILES: COc1cc(C(C)=O)ccc1O [Apocynin]
- wound repair (unrepaired wound area) [1]: significantly accelerated; also recorded: significantly promote the wound repair process
- TEWL under erlotinib administration [2]: significantly decreased
- skin roughness (analysis of skin texture from high-resolution photographs) [3, 6]: significantly reduced
- ΔRy [3, 6]: significantly decreased
- ΔRz [3, 6]: significantly decreased
- ΔTEWL [3, 6]: significantly decreased
- pigmentation / healing of the affected area ([3]; day 16, apocynin 200 μM (FIG. 31)): healed; also recorded: almost no pigmentation
- TEWL on the back ([4]; 200 μM apocynin, third day, compared to the solvent-applied control group (FIG. 28)): significantly lower
- Ra (arithmetic mean roughness) [4, 7]: significantly reduced
- Rz (ten-point average roughness) [4, 7]: significantly reduced
- skin damage [5]: significantly reduced
